Literature values in article PMC5729432, “A Phase 1 study of ARQ 087, an oral pan-FGFR inhibitor in patients with advanced solid tumours” (British Journal of Cancer, 2017).

What was measured:
[1] = test system: patients with advanced solid tumors; design: method as in Tabernero et al, 2015; conditions: ref Tabernero et al, 2015
[2] = test system: patients with advanced solid tumours; design: method as in Andre et al, 2013b; Saka et al, 2017; conditions: ref Andre et al, 2013b; Saka et al, 2017
[3] = test system: patients; design: method as in Nogova et al, 2017; conditions: at the RP2D; ref Nogova et al, 2017

COc1cc(OC)cc(N(CCNC(C)C)c2ccc3ncc(-c4cnn(C)c4)nc3c2)c1 [JNJ-42756493]
AE asthenia [1]: 55%
AE constipation [1]: 34%
AE decreased appetite [1]: 32%
AE dry mouth [1]: 45%
AE hyperphosphataemia [1]: 65%
AE nail toxicity [1]: 35%
dose interruptions for hyperphosphataemia [1]: 31%
dose modifications for hyperphosphataemia [1]: 8%

COc1cc(CCc2cc(NC(=O)c3ccc(N4CC(C)NC(C)C4)cc3)n[nH]2)cc(OC)c1 (stereo not shown) [AZD3547]
common treatment-related AEs [2]: fatigue, mucositis, nausea, CSR, and hyperphosphataemia

CCN1CCN(c2ccc(Nc3cc(N(C)C(=O)Nc4c(Cl)c(OC)cc(OC)c4Cl)ncn3)cc2)CC1 [BGJ398]
patients requiring dose adjustments or interruptions for hyperphosphataemia [3]: 50%
